The values that follow come from ChEMBL document CHEMBL1122552, “Synthesis and biological evaluation of 6-amino-1H-pyrrolo[3,2-c]pyridin-4(5H)-one (3,7-dideazaguanine)” (1984).

Structures are written as SMILES. Values after ≈ are worked out from the molar mass of the structure shown.

This assay concerns Vaccinia virus. The experiment in a line: The minimum inhibitory concentration required to reduce vaccinia virus induced cytopathogenicity in primary rabbit kidney cells by 50%. It counts as functional. To be noted: Orthopoxvirus vaccinia.
Turning to `Nc1cc2[nH]ccc2c(O)n1`, the MIC amounted to 400 µg/mL (≈ 2680 µM). The figure for `Nc1cc2[nH]cnc2c(=O)[nH]1` [DEZAGUANINE] is 0.1 µg/mL (≈ 0.666 µM); for `NC(=O)c1ncn([C@@H]2O[C@H](CO)[C@@H](O)[C@H]2O)n1` [RIBAVIRIN] it is 40 µg/mL (≈ 164 µM); for `Nc1ncnc2c1ncn2C[C@H](O)CO` [(S)-DHPA] it is 10 µg/mL (≈ 47.8 µM).
